From ChEMBL document CHEMBL1629608, “Variations in amino acid composition of antisense peptide-phosphorodiamidate morpholino oligomer affect potency against Escherichia coli in vitro and in vivo” (Antimicrob Agents Chemother, 2009) come the findings set out here.

One may read the MIC as the smallest concentration in the dilution series that meets the test's criterion for growth inhibition. Lower therefore signals greater potency.

≈ marks a conversion by molar mass, not a printed value.

The test has as its system Escherichia coli. Briefly: Antibacterial activity against Escherichia coli K-12 W3110 by microdilution method. In kind it is functional. The following applies: K-12 substr. W3110. On the technique in general: In broth dilution the organism is exposed to a series of concentrations in liquid medium.
In the case of `Cc1cn([C@H]2CN(P(=O)(OC[C@@H]3CN(P(=O)(OC[C@@H]4CN(P(=O)(OC[C@@H]5CN(P(=O)(OC[C@@H]6CN(P(=O)(OC[C@@H]7CN(P(=O)(OC[C@@H]8CN(P(=O)(OC[C@@H]9CN(P(=O)(OC[C@@H]%10CNC[C@H](n%11cnc%12c(=O)[nH]c(N)nc%12%11)O%10)N(C)C)C[C@H](n%10cc(C)c(=O)[nH]c%10=O)O9)N(C)C)C[C@H](n9cnc%10c(=O)[nH]c(N)nc%109)O8)N(C)C)C[C@H](n8cnc9c(N)ncnc98)O7)N(C)C)C[C@H](n7cc(C)c(=O)[nH]c7=O)O6)N(C)C)C[C@H](n6cnc7c(N)ncnc76)O5)N(C)C)C[C@H](n5cnc6c(=O)[nH]c(N)nc65)O4)N(C)C)C[C@H](n4ccc(N)nc4=O)O3)N(C)C)C[C@@H](COP(=O)(N(C)C)N3C[C@@H](COP(=O)(N(C)C)N4C[C@@H](COP(=O)(N(C)C)N5CCN(C(=O)CCNC(=O)CCCCCNC(=O)[C@@H](N)CCCNC(=O)CCCCCNC(=O)[C@@H](N)CCCNC(=O)[C@@H](N)CCCNC(=O)CCCCCNC(=O)[C@@H](N)CCCNC(=O)[C@@H](N)CCCNC(=O)CCCCCNC(=O)[C@@H](N)CCCNC(=O)[C@@H](N)CCCNC(=O)CCCCCNC(=O)[C@@H](N)CCCN)CC5)O[C@@H](n5ccc(N)nc5=O)C4)O[C@@H](n4cc(C)c(=O)[nH]c4=O)C3)O2)c(=O)[nH]c1=O` (stereo partly specified), inhibition of growth (MIC) required 10 µM (≈ 53.3 µg/mL).

In the case of `Cc1cn([C@H]2CN(P(=O)(OC[C@@H]3CN(P(=O)(OC[C@@H]4CN(P(=O)(OC[C@@H]5CN(P(=O)(OC[C@@H]6CN(P(=O)(OC[C@@H]7CN(P(=O)(OC[C@@H]8CN(P(=O)(OC[C@@H]9CN(P(=O)(OC[C@@H]%10CNC[C@H](n%11cnc%12c(=O)[nH]c(N)nc%12%11)O%10)N(C)C)C[C@H](n%10cc(C)c(=O)[nH]c%10=O)O9)N(C)C)C[C@H](n9cnc%10c(=O)[nH]c(N)nc%109)O8)N(C)C)C[C@H](n8cnc9c(N)ncnc98)O7)N(C)C)C[C@H](n7cc(C)c(=O)[nH]c7=O)O6)N(C)C)C[C@H](n6cnc7c(N)ncnc76)O5)N(C)C)C[C@H](n5cnc6c(=O)[nH]c(N)nc65)O4)N(C)C)C[C@H](n4ccc(N)nc4=O)O3)N(C)C)C[C@@H](COP(=O)(N(C)C)N3C[C@@H](COP(=O)(N(C)C)N4C[C@@H](COP(=O)(N(C)C)N5CCN(C(=O)CCNC(=O)CCCCCNC(=O)[C@H](CCCNC(=N)N)NC(=O)CCNC(=O)CCNC(=O)[C@H](CCCNC(=N)N)NC(=O)CCNC(=O)CCNC(=O)[C@H](CCCNC(=N)N)NC(=O)CCNC(=O)CCNC(=O)[C@@H](N)CCCNC(=N)N)CC5)O[C@@H](n5ccc(N)nc5=O)C4)O[C@@H](n4cc(C)c(=O)[nH]c4=O)C3)O2)c(=O)[nH]c1=O` (stereo partly specified), the MIC was > 80 µM.

As to `Cc1cn([C@H]2CN(P(=O)(OC[C@@H]3CN(P(=O)(OC[C@@H]4CN(P(=O)(OC[C@@H]5CN(P(=O)(OC[C@@H]6CN(P(=O)(OC[C@@H]7CN(P(=O)(OC[C@@H]8CN(P(=O)(OC[C@@H]9CN(P(=O)(OC[C@@H]%10CNC[C@H](n%11cnc%12c(=O)[nH]c(N)nc%12%11)O%10)N(C)C)C[C@H](n%10cc(C)c(=O)[nH]c%10=O)O9)N(C)C)C[C@H](n9cnc%10c(=O)[nH]c(N)nc%109)O8)N(C)C)C[C@H](n8cnc9c(N)ncnc98)O7)N(C)C)C[C@H](n7cc(C)c(=O)[nH]c7=O)O6)N(C)C)C[C@H](n6cnc7c(N)ncnc76)O5)N(C)C)C[C@H](n5cnc6c(=O)[nH]c(N)nc65)O4)N(C)C)C[C@H](n4ccc(N)nc4=O)O3)N(C)C)C[C@@H](COP(=O)(N(C)C)N3C[C@@H](COP(=O)(N(C)C)N4C[C@@H](COP(=O)(N(C)C)N5CCN(C(=O)CCNC(=O)CCCCCNC(=O)[C@@H](N)CCCNC(=O)[C@H](Cc6ccccc6)NC(=O)[C@H](Cc6ccccc6)NC(=O)[C@@H](N)CCCNC(=O)[C@H](Cc6ccccc6)NC(=O)[C@H](Cc6ccccc6)NC(=O)[C@@H](N)CCCNC(=O)[C@H](Cc6ccccc6)NC(=O)[C@H](Cc6ccccc6)NC(=O)[C@@H](N)CCCN)CC5)O[C@@H](n5ccc(N)nc5=O)C4)O[C@@H](n4cc(C)c(=O)[nH]c4=O)C3)O2)c(=O)[nH]c1=O` (stereo partly specified), the MIC was > 80 µM.

Regarding `Cc1cn([C@H]2CN(P(=O)(OC[C@@H]3CN(P(=O)(OC[C@@H]4CN(P(=O)(OC[C@@H]5CN(P(=O)(OC[C@@H]6CN(P(=O)(OC[C@@H]7CN(P(=O)(OC[C@@H]8CN(P(=O)(OC[C@@H]9CN(P(=O)(OC[C@@H]%10CNC[C@H](n%11cnc%12c(=O)[nH]c(N)nc%12%11)O%10)N(C)C)C[C@H](n%10cc(C)c(=O)[nH]c%10=O)O9)N(C)C)C[C@H](n9cnc%10c(=O)[nH]c(N)nc%109)O8)N(C)C)C[C@H](n8cnc9c(N)ncnc98)O7)N(C)C)C[C@H](n7cc(C)c(=O)[nH]c7=O)O6)N(C)C)C[C@H](n6cnc7c(N)ncnc76)O5)N(C)C)C[C@H](n5cnc6c(=O)[nH]c(N)nc65)O4)N(C)C)C[C@H](n4ccc(N)nc4=O)O3)N(C)C)C[C@@H](COP(=O)(N(C)C)N3C[C@@H](COP(=O)(N(C)C)N4C[C@@H](COP(=O)(N(C)C)N5CCN(C(=O)CCNC(=O)CCCCCNC(=O)[C@H](Cc6ccccc6)NC(=O)[C@H](Cc6ccccc6)NC(=O)[C@@H](N)CCCNC(=N)N)CC5)O[C@@H](n5ccc(N)nc5=O)C4)O[C@@H](n4cc(C)c(=O)[nH]c4=O)C3)O2)c(=O)[nH]c1=O` (stereo partly specified), the MIC was > 80 µM.

Regarding `Cc1cn([C@H]2CN(P(=O)(OC[C@@H]3CN(P(=O)(OC[C@@H]4CN(P(=O)(OC[C@@H]5CN(P(=O)(OC[C@@H]6CN(P(=O)(OC[C@@H]7CN(P(=O)(OC[C@@H]8CN(P(=O)(OC[C@@H]9CN(P(=O)(OC[C@@H]%10CNC[C@H](n%11cnc%12c(=O)[nH]c(N)nc%12%11)O%10)N(C)C)C[C@H](n%10cc(C)c(=O)[nH]c%10=O)O9)N(C)C)C[C@H](n9cnc%10c(=O)[nH]c(N)nc%109)O8)N(C)C)C[C@H](n8cnc9c(N)ncnc98)O7)N(C)C)C[C@H](n7cc(C)c(=O)[nH]c7=O)O6)N(C)C)C[C@H](n6cnc7c(N)ncnc76)O5)N(C)C)C[C@H](n5cnc6c(=O)[nH]c(N)nc65)O4)N(C)C)C[C@H](n4ccc(N)nc4=O)O3)N(C)C)C[C@@H](COP(=O)(N(C)C)N3C[C@@H](COP(=O)(N(C)C)N4C[C@@H](COP(=O)(N(C)C)N5CCN(C(=O)CCNC(=O)CCCCCNC(=O)CCCCCNC(=O)[C@H](CCCNC(=N)N)NC(=O)CCCCCNC(=O)CCCCCNC(=O)[C@H](CCCNC(=N)N)NC(=O)CCCCCNC(=O)CCCCCNC(=O)[C@@H](N)CCCNC(=N)N)CC5)O[C@@H](n5ccc(N)nc5=O)C4)O[C@@H](n4cc(C)c(=O)[nH]c4=O)C3)O2)c(=O)[nH]c1=O` (stereo partly specified), 20 µM (≈ 100 µg/mL) was the least that counted as inhibitory (MIC).

In the case of `Cc1cn([C@H]2CN(P(=O)(OC[C@@H]3CN(P(=O)(OC[C@@H]4CN(P(=O)(OC[C@@H]5CN(P(=O)(OC[C@@H]6CN(P(=O)(OC[C@@H]7CN(P(=O)(OC[C@@H]8CN(P(=O)(OC[C@@H]9CN(P(=O)(OC[C@@H]%10CNC[C@H](n%11cnc%12c(=O)[nH]c(N)nc%12%11)O%10)N(C)C)C[C@H](n%10cc(C)c(=O)[nH]c%10=O)O9)N(C)C)C[C@H](n9cnc%10c(=O)[nH]c(N)nc%109)O8)N(C)C)C[C@H](n8cnc9c(N)ncnc98)O7)N(C)C)C[C@H](n7cc(C)c(=O)[nH]c7=O)O6)N(C)C)C[C@H](n6cnc7c(N)ncnc76)O5)N(C)C)C[C@H](n5cnc6c(=O)[nH]c(N)nc65)O4)N(C)C)C[C@H](n4ccc(N)nc4=O)O3)N(C)C)C[C@@H](COP(=O)(N(C)C)N3C[C@@H](COP(=O)(N(C)C)N4C[C@@H](COP(=O)(N(C)C)N5CCN(C(=O)CCNC(=O)CCCCCNC(=O)[C@H](CCCCN)NC(=O)CCCCNC(=O)[C@H](CCCCN)NC(=O)[C@H](CCCCN)NC(=O)CCCCNC(=O)[C@H](CCCCN)NC(=O)[C@H](CCCCN)NC(=O)CCCCNC(=O)[C@H](CCCCN)NC(=O)[C@H](CCCCN)NC(=O)CCCCNC(=O)[C@@H](N)CCCCN)CC5)O[C@@H](n5ccc(N)nc5=O)C4)O[C@@H](n4cc(C)c(=O)[nH]c4=O)C3)O2)c(=O)[nH]c1=O` (stereo partly specified), the minimal inhibitory concentration (MIC) is 20 µM (≈ 108 µg/mL).
